The test system of assay [1] is HeLa cells. The assay is described as follows: Cytotoxicity of dimeric peptides, WST-1 assay. The class given is cell-based, human. The note with it: for ratio: IC50 relative to LK-3, HeLa cells. As for the experimental part:
Cytotoxicity was identified using WST-1 assay by treating HeLa cells with peptides in a 96-well plate (1×10^4 cells/well) for 24 hours.
(§1) Specifically, HeLa cells were cultured in DMEM at a condition of 37° C. with 5% CO2. The cells were respectively cultured in a cell culture plate, and then removed with trypsin. The cells were seeded at 1×10^4 cells per well in a 96-well plate. After 24 hours, the peptide was added to the media, and culture was performed again at a condition of 37° C. with 5% CO2 for 24 hours. 10 uL of WST-1 reagent was added per well, and reaction was allowed to proceed for 30 minutes at a condition of 37° C. with 5% CO2. Then, UV absorbance was measured at 450/700 nm with a 96-well plate reader.
(Tetrazolium dyes change colour on reduction, which living cells bring about.)

For assay [2], the system named is MDA-MB-231 cells. The experiment in a line: Cytotoxicity of MTX-bound peptide, WST-1 assay. The class given is cell-based. As for the experimental part:
as §1
In order to identify a drug delivery effect of a peptide, a peptide in which methotrexate (MTX) is bound to the N-terminus of one monomer of a dimer was synthesized according to a known method (Kim et al. Biomacromolecules 2016).
MDA-MB-231 cells were seeded in a 96-well plate at a density of 2.5×10^3 cells/well, and treated with the MTX-bound peptide for 48 hours starting from the next day.

Assay [3] deals with NIH-3T3. The experiment in a line: IC50 of MTX in cell line NIH-3T3. The class given is cell-based. To be noted: Mus musculus, NIH3T3.
Assay [4] relates to MDA-MB-231. The experiment in a line: IC50 of MTX in cell line MDA-MB-231. The class given is cell-based. The note with it: Homo sapiens.
The test system of assay [5] is HeLa. The experiment in a line: IC50 of MTX in cell line HeLa. The class given is cell-based. The note with it: Homo sapiens.
Assay [6] in a line: Intracellular delivery of CsA with fluorescence by non-covalent bonding with peptide. The class given is cell-based. To be noted: FIG. 8. The text has this: For the peptides with various compositions of lysine and arginine, their intracellular delivery by non-covalent bonding with CsA was identified using CsA with fluorescence.
Assay [7] relates to HeLa cells. The assay is described as follows: Cell-penetrating ability of fluorescently labeled dimeric peptides, flow cytometry. The note with it: at 62.5 nM, FIG. 6A. The class given is cell-based, human. The procedure: During preparation of CPPs in dimeric form shown in Tables 1 to 3, one monomer thereof was prepared in a form where 5-TAMRA fluorescence was attached to the N-terminus, instead of acetyl. A monomer with acetyl and a monomer with 5-TAMRA fluorescence were mixed in a molar ratio of 1:1, and subjected to an oxidation condition in air to produce a dimeric form in which only one fluorescence was labeled per dimer molecule. Then, cell-penetrating ability of each dimer was identified. Each fluorescently labeled peptide was used to treat HeLa cells (5×10^4 cells/well), which are human-derived cells, and a ratio of the number of cells with fluorescence to the total number of cells was obtained through flow cytometry.
FIGS. 4B to 4D illustrate results obtained by treating cells with respective dimers at the same concentration (62.5 nM), measuring fluorescence intensity of the cells by flow cytometry, and relatively comparing the fluorescence intensity.
Based on cell-penetrating ability and cytotoxicity of the dimeric peptides of the present disclosure, correlation therebetween was identified. Cytotoxicity (IC50^−1) and cell-penetrating ability of the respective peptides were identified at 62.5 nM according to the methods described in Examples 5 and 6, and then graphically represented.

The test system of assay [8] is IL-2. The experiment in a line: Decrease of extracellularly secreted IL-2 in Jurkat cells, ELISA. The class given is cell-based. To be noted: CsA complex with diLR10 versus CsA only. As for the experimental part:
The hydrophobic drug cyclosporine (CsA) was mixed with a peptide and incubated at room temperature for 20 minutes to create a complex with the hydrophobic drug. Then, Jurkat cells (1.0×10^4 cells/well) were treated with the complex for 4.5 hours. An amount of extracellularly secreted IL-2 was measured by an ELISA method to identify, through IC50 values, whether an anti-inflammatory effect caused by CsA, which corresponded to a relative decrease in IL-2, was enhanced by the cell-penetrating peptide diLR10.

Read-outs that look alike come from different tables or passages of the source. Residues, ends and D or L forms follow the SMILES beside them.

In the case of `CC(=O)N[C@@H](CC(C)C)C(=O)N[C@H]1CSSC[C@@H](C(=O)N[C@@H](CCCCN)C(N)=O)NC(=O)[C@H](CC(C)C)NC(=O)[C@H](CCCCN)NC(=O)[C@H](CCCCN)NC(=O)[C@H](CC(C)C)NC(=O)[C@H](CC(C)C)NC(=O)[C@H](CCCCN)NC(=O)[C@@H](NC(=O)[C@H](CC(C)C)NC(C)=O)CSSC[C@@H](C(=O)N[C@@H](CCCCN)C(N)=O)NC(=O)[C@H](CC(C)C)NC(=O)[C@H](CCCCN)NC(=O)[C@H](CCCCN)NC(=O)[C@H](CC(C)C)NC(=O)[C@H](CC(C)C)NC(=O)[C@H](CCCCN)NC1=O` [diLK10] (HELM PEPTIDE1{[ac].L.C.K.L.L.K.K.L.C.K.[am]}|PEPTIDE2{[ac].L.C.K.L.L.K.K.L.C.K.[am]}$PEPTIDE1,PEPTIDE2,3:R3-10:R3|PEPTIDE1,PEPTIDE2,10:R3-3:R3$$$V2.0), the half-maximal inhibitory concentration (IC50) in assay [1] (HeLa cells, WST-1, peptide treatment 24 hours) was 12400 nM; in assay [2] (48 hours, MTX bound to N-terminus of one monomer of the dimer, MTX column = MTX alone, read-out: IC50 of MTX-bound peptide), 45.9 nM; in assay [2] (peptide itself, without MTX, read-out: IC50), about 13700 nM. The ratio in assay [1] was 2.79.

Turning to `CN(Cc1cnc2nc(N)nc(N)c2n1)c1ccc(C(=O)N[C@@H](CCC(=O)O)C(=O)O)cc1` [MTX, methotrexate], the concentration for half-maximal inhibition (IC50) in assay [3] was 37 nM; in assay [4], 970 nM; in assay [5], about 31 nM; in assay [2] (Homo sapiens, 48 hours, MTX bound to N-terminus of one monomer of the dimer, MTX column = MTX alone, read-out: IC50 of MTX-bound peptide) it was 972 nM.

For “diLR10^R3K: dimer of monomer LR10^R3K, Ac-LCKLLRRLCR-NH2 (SEQ ID NO 30) (also: dimer of two monomers linked by interchain disulfide bonds)”, in assay [6], the “intracellular delivery ability for CsA” value is recorded as “best intracellular delivery ability for CsA”.

As for `CC(=O)N[C@@H](CC(C)C)C(=O)N[C@H]1CSSC[C@@H](C(=O)N[C@@H](CCCNC(=N)N)C(N)=O)NC(=O)[C@H](CC(C)C)NC(=O)[C@H](CCCNC(=N)N)NC(=O)[C@H](CCCNC(=N)N)NC(=O)[C@H](CC(C)C)NC(=O)[C@H](CC(C)C)NC(=O)[C@H](CCCNC(=N)N)NC(=O)[C@@H](NC(=O)[C@H](CC(C)C)NC(C)=O)CSSC[C@@H](C(=O)N[C@@H](CCCNC(=N)N)C(N)=O)NC(=O)[C@H](CC(C)C)NC(=O)[C@H](CCCNC(=N)N)NC(=O)[C@H](CCCNC(=N)N)NC(=O)[C@H](CC(C)C)NC(=O)[C@H](CC(C)C)NC(=O)[C@H](CCCNC(=N)N)NC1=O` [diLR10] (HELM PEPTIDE1{[ac].L.C.R.L.L.R.R.L.C.R.[am]}|PEPTIDE2{[ac].L.C.R.L.L.R.R.L.C.R.[am]}$PEPTIDE1,PEPTIDE2,3:R3-10:R3|PEPTIDE1,PEPTIDE2,10:R3-3:R3$$$V2.0; bridges inferred), the “ratio of cell-penetrating ability to cytotoxicity (IC50^−1)” value in assay [7] is “low toxicity as compared with cell-penetrating ability”. For the same molecule, the “increase in IC50 value as compared with LK-3” value in assay [1] (HeLa cells) was “about 5 fold”. In assay [1], the ratio is recorded as 4.26. The “decrease of IC50 value” in assay [8] came to 21%.

Take `CC[C@H](C)[C@H](NC(C)=O)C(=O)N[C@H]1CSSC[C@@H](C(=O)N[C@@H](CCCNC(=N)N)C(N)=O)NC(=O)[C@H]([C@@H](C)CC)NC(=O)[C@H](CCCNC(=N)N)NC(=O)[C@H](CCCNC(=N)N)NC(=O)[C@H]([C@@H](C)CC)NC(=O)[C@H]([C@@H](C)CC)NC(=O)[C@H](CCCNC(=N)N)NC(=O)[C@@H](NC(=O)[C@@H](NC(C)=O)[C@@H](C)CC)CSSC[C@@H](C(=O)N[C@@H](CCCNC(=N)N)C(N)=O)NC(=O)[C@H]([C@@H](C)CC)NC(=O)[C@H](CCCNC(=N)N)NC(=O)[C@H](CCCNC(=N)N)NC(=O)[C@H]([C@@H](C)CC)NC(=O)[C@H]([C@@H](C)CC)NC(=O)[C@H](CCCNC(=N)N)NC1=O` [diIR10] (HELM PEPTIDE1{[ac].I.C.R.I.I.R.R.I.C.R.[am]}|PEPTIDE2{[ac].I.C.R.I.I.R.R.I.C.R.[am]}$PEPTIDE1,PEPTIDE2,3:R3-10:R3|PEPTIDE1,PEPTIDE2,10:R3-3:R3$$$V2.0; bridges inferred): the “ratio of cell-penetrating ability to cytotoxicity (IC50^−1)” value in assay [7] was “low toxicity as compared with cell-penetrating ability”. Further, the ratio in assay [1] is 3.24.

As a reminder, the IC50 is the midpoint of a concentration-inhibition curve.

Values taken from patent publication US20230242582A1, “NOVEL ALPHA-HELICAL DOUBLE-SIDED CELL PENETRATING PEPTIDE AND USE THEREOF” (CAMP THERAPEUTICS INC., priority 2020, published 2023).
